Patent US20240122917A1, “USE OF COMPOSITION CONTAINING CILOSTAZOL IN CEREBROVASCULAR DISEASES” (NEURODAWN PHARMACEUTICAL CO., LTD., priority 2021, published 2024)

How the values were obtained:
plasma protein = details: background statement; cited from earlier work
[1] = system: rats with focal cerebral ischemia-reperfusion injury (MCAO rats); test: Rat focal cerebral ischemia-reperfusion model (internal carotid artery suture method), area of cerebral infarction by TTC staining; type: in vivo, Sprague-Dawley (SD) rats; details: for Area of cerebral infarction (%): 24 hours after cerebral ischemia, mean ± SD; for area of cerebral infarction in MCAO rats (in words) / neurological deficits in MCAO rats: cilostazol at 1-15 mg/kg or edaravone at 1.67-8.33 mg/kg in the tail vein
Experimental: The experimental animals were divided into 4 groups, cilostazol group (1 mg/kg), edaravone group (5 mg/kg), cilostazol and edaravone composition group (6 mg/kg, cilostazol:edaravone=1:5, cilostazol 1 mg/kg+edaravone 5 mg/kg) and model group. After the cerebral ischemia model was established, the animals were assigned to each group in a single-blind manner with equal probability. After reperfusion, the animals were immediately administered intravenously with the drugs once. The animals in the model group were administered with an equal volume of normal saline. The animals were sacrificed 24 hours after cerebral ischemia, and their brains were taken out, stained, and photographed for determining the area of cerebral infarction.
The rat focal cerebral ischemia-reperfusion model was established by internal carotid artery suture method. The limbs (hind limbs above the knee joint and forelimbs below the wrist joint) and head of an anesthetized rat were tightened with rubber bands. The animal was fixed on an operating table in supine position, and was shaved with an animal shaver from the head to the chest, and the skin was disinfected with alcohol. The neck of the rat was cut at the midline, and the subcutaneous tissue was bluntly separated. The thin layer of fascia on the surface of the anterior triangle of the neck was separated, the lower side-lower edge of the clavicular hyoid muscle was pulled up, and the longitudinally pulsating artery parallel to this muscle can be seen. The arterial shell was opened, and the bifurcation of the right carotid artery was exposed. The right common carotid artery, external carotid artery and internal carotid artery were separated. The vagus nerve was gently stripped, and the external carotid artery was ligated and cut. The proximal end of the common carotid artery was clamped. An incision was made at the distal end from the ligature of the external carotid artery, and was inserted with a suture line, which was passed through the bifurcation of the common carotid artery into the internal carotid artery, and then was inserted slowly until reaching slight resistance (approximately 20 mm from the bifurcation), so as to block all blood supply to the middle cerebral artery. The suture line was slightly fixed below the incision of the external carotid artery with silk thread. The silk thread clamping the proximal end of the common carotid artery was loosened. A gauze soaked in sterile saline was covered on the wound, and the rat was placed on a heat preservation pad to keep warm. 2.0 h after cerebral ischemia on the right side, the suture line was pulled out gently to restore the blood supply for reperfusion. The external carotid artery was ligated with silk thread fixing the suture line. The skin was stitched, and disinfected. The rats were placed in clean feed, and their general condition and respiration were observed until they woke up from anesthesia. The rats were provided with food and water, and commonly reared.
The animals were subjected to evaluation of neurological deficit symptoms and then sacrificed with CO2. The brain was taken out by cutting off head. The olfactory bulb, cerebellum and lower brainstem were removed. The blood on the surface of the brain was washed with normal saline, and the residual water on the surface was removed. The brain was placed at −20° C. for 20 min, then taken out, immediately cut to a coronal section vertically downward at the crossing plane of the line of sight, and sliced backward every 2 mm. The brain slices were incubated in 1% TTC staining solution (at 37° C. for 30 min). The normal brain tissue was stained into dark red, and the ischemic brain tissue was stained into pale white. After being washed with normal saline, the brain slices were quickly arranged in a row from front to back, removed off the residual water on the surface, and photographed. […]

[2] = system: rats with focal cerebral ischemia-reperfusion injury (MCAO rats); test: as above; type: in vivo, Sprague-Dawley (SD) rats; details: 24 hours after cerebral ischemia, mean ± SD
[3] = system: mice with focal cerebral ischemia-reperfusion injury (MCAO mice); test: Mouse focal cerebral ischemia-reperfusion model (internal carotid artery suture method), area of cerebral infarction by TTC staining; type: in vivo, C57BL/6J mice; details: cilostazol at 3.33-16.67 mg/kg or edaravone at 3.33-16.67 mg/kg in the tail vein
Experimental: The animals were subjected to evaluation of neurological deficit symptoms and then sacrificed with CO2. The brain was taken out by cutting off head. The olfactory bulb, cerebellum and lower brainstem were removed. The blood on the surface of the brain was washed with normal saline, and the residual water on the surface was removed. The brain was placed at −20° C. for 20 min, then taken out, immediately cut to a coronal section vertically downward at the crossing plane of the line of sight, and sliced backward every 2 mm. The brain slices were incubated in 1% TTC staining solution (at 37° C. for 30 min). The normal brain tissue was stained into dark red, and the ischemic brain tissue was stained into pale white. After being washed with normal saline, the brain slices were quickly arranged in a row from front to back, removed off the residual water on the surface, and photographed.
Calculation of area of cerebral infarction: The photos were processed by Image J software, and the corresponding area of left brain and non-infarction area of right brain were calculated according to the formula, so that the percentage of the area of infarction was calculated.
The experimental animals were divided into 4 groups, a model group and three groups of compositions of cilostazol/edaravone (respectively a group of cilostazol 3.33 mg/kg+edaravone 16.67 mg/kg in 1:5; a group of cilostazol 5.71 mg/kg+edaravone 14.29 mg/kg in 1:2.5; a group of cilostazol 10 mg/kg+edaravone 10 mg/kg in 1:1, and each composition was administered at a total amount of 20 mg/kg). After the cerebral ischemia model was established, the animals were assigned to each group in a single-blind manner with equal probability. After reperfusion, the animals were immediately administered intravenously with the drugs once. The animals in the model group were administered with an equal volume of normal saline. The animals were sacrificed 24 hours after cerebral ischemia, and their brains were taken out, stained, and photographed for determining the area of cerebral infarction.
Establishment of focal cerebral ischemia-reperfusion model: The mouse focal cerebral ischemia-reperfusion model was established by internal carotid artery suture method. An anesthetized mouse was fixed on an operating table in a supine position. The neck of the mice was cut at the midline, and the subcutaneous tissue was bluntly separated. The right common carotid artery, external carotid artery, and internal carotid artery were separated. […]

SMILES | binding rate to plasma protein (plasma protein) | Area of cerebral infarction (%) ([1]; Example 1, cilostazol 1 mg/kg i.v. once immediately after reperfusion, 2.0 h ischemia, model group 40.35 ± 8.24) | area of cerebral infarction in MCAO rats (in words) [1] | neurological deficits in MCAO rats [1] | Area of cerebral infarction (%) ([2]; Example 2, cilostazol 5 mg/kg i.v. once immediately after reperfusion, model group 40.50 ± 8.51) | Area of cerebral infarction (%) ([2]; Example 3, cilostazol 15 mg/kg i.v. once immediately after reperfusion, model group 39.41 ± 9.56) | area of cerebral infarction in MCAO mice (in words) [3] | neurological deficits in MCAO mice [3] | Area of cerebral infarction (%) ([1]; Example 1, edaravone 5 mg/kg i.v. once immediately after reperfusion, model group 40.35 ± 8.24) | Area of cerebral infarction (%) ([1]; Example 2, edaravone 5 mg/kg i.v. once immediately after reperfusion, model group 40.50 ± 8.51) | Area of cerebral infarction (%) ([2]; Example 3, edaravone 3 mg/kg i.v. once immediately after reperfusion, model group 39.41 ± 9.56)
O=C1CCc2cc(OCCCCc3nnnn3C3CCCCC3)ccc2N1 [Cilostazol] | about 95% | 34.24 ± 7.25% | reduce the area of cerebral infarction | significantly ameliorate the neurological deficits | 32.59 ± 7.15 % | 27.26 ± 9.74 % | reduce the area of cerebral infarction | significantly ameliorate the neurological deficits | – | – | –
CC1=NN(c2ccccc2)C(=O)C1 [Edaravone, 3-methyl-1-phenyl-2-pyrazolin-5-one] | – | – | reduce the area of cerebral infarction | significantly ameliorate the neurological deficits | – | – | reduce the area of cerebral infarction | significantly ameliorate the neurological deficits | 29.35 ± 10.45 % | 29.49 ± 9.06 % | 31.24 ± 6.83 %
